“And” between values parts separate entries of the source, which are not always exact repeats. Equal values may be shown once. Read-outs that look alike come from different tables or passages of the source. Ends that are not written are not given here.

The source of these data is publication PMC5814047, “Peptidic inhibitors of insulin-degrading enzyme with potential for dermatological applications discovered via phage display” (PLoS ONE, 2018).

For test [1], the target named is T1, IDE (Homo sapiens, UniProt P14735).
T1 construct: made in house; host or cells: bacteria
T1 sequence (P14735 1-1019): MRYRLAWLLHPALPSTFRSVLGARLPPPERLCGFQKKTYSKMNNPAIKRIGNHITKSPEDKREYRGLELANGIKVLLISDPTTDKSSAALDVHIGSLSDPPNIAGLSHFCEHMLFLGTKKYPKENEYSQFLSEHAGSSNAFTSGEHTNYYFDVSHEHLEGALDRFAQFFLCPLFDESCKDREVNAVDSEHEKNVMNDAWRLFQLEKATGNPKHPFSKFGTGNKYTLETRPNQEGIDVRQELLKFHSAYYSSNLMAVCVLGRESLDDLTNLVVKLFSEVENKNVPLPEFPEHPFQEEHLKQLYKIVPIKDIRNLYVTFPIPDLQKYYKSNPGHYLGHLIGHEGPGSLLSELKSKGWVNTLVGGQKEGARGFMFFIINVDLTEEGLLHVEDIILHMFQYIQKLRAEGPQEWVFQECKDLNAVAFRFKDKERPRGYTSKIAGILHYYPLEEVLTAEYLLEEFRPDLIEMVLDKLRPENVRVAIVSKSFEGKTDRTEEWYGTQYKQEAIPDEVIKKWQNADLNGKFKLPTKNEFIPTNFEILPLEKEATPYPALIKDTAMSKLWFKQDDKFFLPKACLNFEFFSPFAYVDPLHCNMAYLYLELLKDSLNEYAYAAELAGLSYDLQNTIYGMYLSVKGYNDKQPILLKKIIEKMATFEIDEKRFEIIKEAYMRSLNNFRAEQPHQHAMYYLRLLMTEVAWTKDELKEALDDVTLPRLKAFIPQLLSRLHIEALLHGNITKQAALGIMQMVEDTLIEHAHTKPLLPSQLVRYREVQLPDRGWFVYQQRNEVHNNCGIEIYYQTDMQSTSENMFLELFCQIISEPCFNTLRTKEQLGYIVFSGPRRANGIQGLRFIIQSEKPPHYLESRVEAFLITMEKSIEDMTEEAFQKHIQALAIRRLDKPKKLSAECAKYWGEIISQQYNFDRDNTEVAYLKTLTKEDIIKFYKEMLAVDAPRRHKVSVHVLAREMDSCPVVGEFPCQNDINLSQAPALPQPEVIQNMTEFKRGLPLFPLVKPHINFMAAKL
The test is described as follows: biochemical. The settings on record: for remaining activity at 500 µM: individual replicates, read-out: Percent activity at 500 uM, Replicate 1-4. In a few lines:
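Recombinant human IDE (1 nM, bacterially expressed) degraded FRET1 substrate (5 μM), fluoresceinated biotinylated amyloid β (500 nM) or human insulin (50 nM) in PBS with 0.05% BSA. Peptides tested included N-acetylated and C-amidated variants.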

Test [2] concerns the target T1, IDE. Nature of the test: biochemical. The note with it: for IC50: insulin ELISA assay, dose-response. In a few lines: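 Bacterially expressed recombinant human IDE (1 nM) in PBS with 0.05% BSA. Substrates: FRET1 (5 μM; fluorescence, ex 340/em 420 nm), fluoresceinated biotinylated amyloid β-protein (500 nM; fluorescence polarization, ex 488/em 525 nm), or recombinant human insulin (50 nM; ELISA).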
(In general: ELISA stands for enzyme-linked immunosorbent assay.)

In the case of WSPISGKFFQRF [P12-4], the inhibition constant (Ki) on IDE [1] (Cheng-Prusoff, KM 10 uM, substrate concentration 5 uM, read-out: Ki values, Mean) was 3.93 µM; at IDE [1] (substrate FRET1 5 μM, Ki from IC50 with the Cheng-Prusoff equation, read-out: Ki FRET1), 3.9 ± 0.5 µM; on IDE [2] (substrate recombinant human insulin 50 nM, Ki from IC50 with the Cheng-Prusoff equation), 1500 ± 300 nM. The remaining activity at 31.25 µM at IDE [1] (dose-response, 31.25 uM, individual runs, read-out: Percent Activity (normalized source data)) amounted to 46.9%. For the same sequence, the IC50 is 5.89 µM on IDE [1] (dose-response, FRET1, read-out: IC50s, Mean); 1.9 µM and 3.16 µM and 3.78 µM at IDE [2] (Replicates 1-3, read-out: IC50s, individual replicates); 2.95 µM on IDE [2] (N=3, read-out: IC50s, Mean). Moreover, at IDE [1] (initial test at 500 uM), the “IC50 <500 uM?” value is listed as “YES”. Besides, the remaining activity at 500 µM is 8.6% on IDE [1] (initial test, percent of initial velocity relative to DMSO-only controls) and 15.5% at IDE [1] (judged as IC50 <100 uM?). For the same sequence, the “IC50 <10 uM?” value against IDE [2] (initial test at 10 uM using insulin (100 nM)) was “YES”.

What is called Ki is the dissociation constant of the complex between target and ligand, obtained from inhibition or displacement.
